Patent US20240317777A1, “NOVEL MACROCYCLIC AMINOPYRAZOLE COMPOUNDS AS CDK2 INHIBITORS” (Accutar Biotechnology Inc., priority 2023, published 2024)
Where two headings read alike, the source gives them in different places.

Tests used:
CDK6-CYCLIN D3 = CDK6-CYCLIN D3 (Homo sapiens, UniProt Q00534); assay: CDK protein kinase inhibition by ADP-Glo assay, CDK6-CYCLIN D3; type: biochemical; conditions: for IC50: read-out: CDK6-CYCLIND3, IC50; for CDK2 Fold selectivity against CDK6: fold selectivity for CDK2 over CDK6, recombinant CDK kinases
In short: (§1)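 Compounds were incubated at 22° C with the CDK/cyclin complex, peptide substrate, 1000 μM ATP and 5 mM MgCl2. The reaction was then quenched and ADP formation quantified by luminescence using ADP-Glo reagents.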

[1] = system: Phospho-Rb (Ser807/811) in OVCAR3 cells; assay: Phospho-Rb expression inhibition in OVCAR3 cells quantified by In Cell Western; type: cell-based; conditions: Homo sapiens, OVCAR-3, 24 hours, read-out: OVCAR-3 pRb IC50
In short: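 In-cell western: after 24 h compound exposure at 37° C, fixed OVCAR3 cells co-stained for pRb Ser807/811 (800 nm channel) and total Rb (680 nm channel), imaged by LI-COR Odyssey.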

CCNE1-normal SKOV3 cells = assay: Cell growth inhibition of CCNE1-normal SKOV3 cells (CellTiter-Glo); type: cell-based; conditions: Homo sapiens, SK-OV-3, 144 h, 6 days
In short: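 Growth was measured by CellTiter-Glo luminescence after 6 days' compound exposure at 37 °C. Cells were plated one day before dosing at 1000 per well in medium with 10% FBS, and compounds were diluted from DMSO stocks.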

CDK1-CYCLIN B = CDK1-CYCLIN B (Homo sapiens, UniProt P06493); assay: CDK protein kinase inhibition by ADP-Glo assay, CDK1-CYCLIN B; type: biochemical; conditions: for IC50: read-out: CDK1-CYCLINB, IC50; for CDK2 Fold selectivity against CDK1: fold selectivity for CDK2 over CDK1, recombinant CDK kinases
In short: as §1

CDK4-CYCLIN D1 = CDK4-CYCLIN D1 (Homo sapiens, UniProt P11802); assay: CDK protein kinase inhibition by ADP-Glo assay, CDK4-CYCLIN D1; type: biochemical; conditions: for IC50: read-out: CDK4-CYCLIND1, IC50; for CDK2 Fold selectivity against CDK4: fold selectivity for CDK2 over CDK4, recombinant CDK kinases
In short: as §1

CDK2-CYCLIN E1 = CDK2-CYCLIN E1 (Homo sapiens, UniProt P24941); assay: CDK protein kinase inhibition by ADP-Glo assay, CDK2-CYCLIN E1; type: biochemical; conditions: read-out: CDK2-CYCLINE, IC50
In short: as §1

CDK9-CYCLIN T1 = CDK9-CYCLIN T1 (Homo sapiens, UniProt P50750); assay: CDK protein kinase inhibition by ADP-Glo assay, CDK9-CYCLIN T1; type: biochemical; conditions: for IC50: read-out: CDK9-CYCLINT1, IC50; for CDK2 Fold selectivity against CDK9: fold selectivity for CDK2 over CDK9, recombinant CDK kinases
In short: as §1

[2] = system: CCNE1-amplified OVCAR3 cells; assay: Cell growth inhibition of CCNE1-amplified OVCAR3 cells (CellTiter-Glo); type: cell-based; conditions: Homo sapiens, OVCAR-3, 144 h, 6 days
In short: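 Growth read-out was CellTiter-Glo luminescence, taken after 10 min at room temperature at the end of a 6-day compound exposure at 37 °C. Compounds were diluted from DMSO stocks across various concentrations.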

[3] = Table 35, recombinant CDK kinase

Chain of CDK4-CYCLIN D1 (P11802 whole entry): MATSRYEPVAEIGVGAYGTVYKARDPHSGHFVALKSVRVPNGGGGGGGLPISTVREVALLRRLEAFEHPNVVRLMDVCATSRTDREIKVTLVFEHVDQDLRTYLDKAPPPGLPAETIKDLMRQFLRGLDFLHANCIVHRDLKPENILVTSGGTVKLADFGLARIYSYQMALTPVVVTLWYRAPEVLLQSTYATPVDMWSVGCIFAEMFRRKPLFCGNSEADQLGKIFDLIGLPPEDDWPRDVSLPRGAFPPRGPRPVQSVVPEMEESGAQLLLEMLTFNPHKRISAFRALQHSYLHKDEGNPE
Chain of CDK4-CYCLIN D1 (P24385 whole entry partner): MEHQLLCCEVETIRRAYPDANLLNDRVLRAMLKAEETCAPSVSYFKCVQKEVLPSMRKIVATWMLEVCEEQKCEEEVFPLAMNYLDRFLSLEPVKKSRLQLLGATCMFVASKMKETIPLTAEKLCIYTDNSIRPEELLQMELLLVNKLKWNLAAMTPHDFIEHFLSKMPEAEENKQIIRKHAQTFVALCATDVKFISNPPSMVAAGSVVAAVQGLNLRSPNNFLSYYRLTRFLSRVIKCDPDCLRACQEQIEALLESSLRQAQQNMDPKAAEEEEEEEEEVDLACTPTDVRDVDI
Chain of CDK1-CYCLIN B (P06493 whole entry): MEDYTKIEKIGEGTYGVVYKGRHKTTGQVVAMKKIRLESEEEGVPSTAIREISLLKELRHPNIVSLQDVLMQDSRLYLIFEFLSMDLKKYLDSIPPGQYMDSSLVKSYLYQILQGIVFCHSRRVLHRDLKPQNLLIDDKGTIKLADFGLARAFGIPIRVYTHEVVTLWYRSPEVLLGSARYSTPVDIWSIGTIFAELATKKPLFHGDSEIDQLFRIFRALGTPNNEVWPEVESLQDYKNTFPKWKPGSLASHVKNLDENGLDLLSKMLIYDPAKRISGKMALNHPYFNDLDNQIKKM
Chain of CDK1-CYCLIN B (P14635 whole entry partner): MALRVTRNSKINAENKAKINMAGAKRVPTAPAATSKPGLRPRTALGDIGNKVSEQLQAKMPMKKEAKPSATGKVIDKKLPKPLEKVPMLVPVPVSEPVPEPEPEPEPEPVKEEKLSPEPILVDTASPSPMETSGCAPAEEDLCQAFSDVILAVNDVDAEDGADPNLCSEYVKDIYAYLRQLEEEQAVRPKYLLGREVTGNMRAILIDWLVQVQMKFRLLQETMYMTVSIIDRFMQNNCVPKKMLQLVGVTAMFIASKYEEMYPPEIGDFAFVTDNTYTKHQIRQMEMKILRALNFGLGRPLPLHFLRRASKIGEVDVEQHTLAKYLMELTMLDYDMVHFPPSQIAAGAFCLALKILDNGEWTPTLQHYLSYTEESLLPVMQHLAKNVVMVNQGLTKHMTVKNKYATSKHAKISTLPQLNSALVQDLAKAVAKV
Chain of CDK6-CYCLIN D3 (Q00534 whole entry): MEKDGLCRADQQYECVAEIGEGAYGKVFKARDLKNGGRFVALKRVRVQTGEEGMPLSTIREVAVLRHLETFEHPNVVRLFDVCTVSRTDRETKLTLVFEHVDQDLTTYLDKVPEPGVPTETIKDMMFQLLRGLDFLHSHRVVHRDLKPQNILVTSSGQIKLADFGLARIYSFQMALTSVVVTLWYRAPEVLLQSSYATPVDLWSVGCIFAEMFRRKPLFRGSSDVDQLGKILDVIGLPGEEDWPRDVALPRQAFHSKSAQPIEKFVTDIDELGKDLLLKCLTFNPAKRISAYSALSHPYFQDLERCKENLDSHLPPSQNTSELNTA
Chain of CDK6-CYCLIN D3 (P30281 whole entry partner): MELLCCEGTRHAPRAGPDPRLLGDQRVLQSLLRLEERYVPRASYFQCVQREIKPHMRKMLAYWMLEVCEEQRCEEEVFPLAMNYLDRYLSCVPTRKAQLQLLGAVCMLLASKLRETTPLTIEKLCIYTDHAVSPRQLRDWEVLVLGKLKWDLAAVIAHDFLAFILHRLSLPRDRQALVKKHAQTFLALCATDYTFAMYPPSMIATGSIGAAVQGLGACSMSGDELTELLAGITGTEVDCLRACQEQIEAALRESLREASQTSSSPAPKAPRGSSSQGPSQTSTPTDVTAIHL
Chain of CDK9-CYCLIN T1 (P50750 whole entry): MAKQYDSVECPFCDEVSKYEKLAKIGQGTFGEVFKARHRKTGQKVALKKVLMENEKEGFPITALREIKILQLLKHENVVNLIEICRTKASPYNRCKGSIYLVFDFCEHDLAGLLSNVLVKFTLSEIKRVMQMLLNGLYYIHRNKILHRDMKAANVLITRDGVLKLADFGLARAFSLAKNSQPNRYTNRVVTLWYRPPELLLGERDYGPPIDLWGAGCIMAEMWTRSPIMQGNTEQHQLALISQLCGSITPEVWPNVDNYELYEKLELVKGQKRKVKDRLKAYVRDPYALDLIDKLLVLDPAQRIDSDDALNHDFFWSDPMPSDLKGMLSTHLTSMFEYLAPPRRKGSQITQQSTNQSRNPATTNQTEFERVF
Chain of CDK9-CYCLIN T1 (O60563 whole entry partner): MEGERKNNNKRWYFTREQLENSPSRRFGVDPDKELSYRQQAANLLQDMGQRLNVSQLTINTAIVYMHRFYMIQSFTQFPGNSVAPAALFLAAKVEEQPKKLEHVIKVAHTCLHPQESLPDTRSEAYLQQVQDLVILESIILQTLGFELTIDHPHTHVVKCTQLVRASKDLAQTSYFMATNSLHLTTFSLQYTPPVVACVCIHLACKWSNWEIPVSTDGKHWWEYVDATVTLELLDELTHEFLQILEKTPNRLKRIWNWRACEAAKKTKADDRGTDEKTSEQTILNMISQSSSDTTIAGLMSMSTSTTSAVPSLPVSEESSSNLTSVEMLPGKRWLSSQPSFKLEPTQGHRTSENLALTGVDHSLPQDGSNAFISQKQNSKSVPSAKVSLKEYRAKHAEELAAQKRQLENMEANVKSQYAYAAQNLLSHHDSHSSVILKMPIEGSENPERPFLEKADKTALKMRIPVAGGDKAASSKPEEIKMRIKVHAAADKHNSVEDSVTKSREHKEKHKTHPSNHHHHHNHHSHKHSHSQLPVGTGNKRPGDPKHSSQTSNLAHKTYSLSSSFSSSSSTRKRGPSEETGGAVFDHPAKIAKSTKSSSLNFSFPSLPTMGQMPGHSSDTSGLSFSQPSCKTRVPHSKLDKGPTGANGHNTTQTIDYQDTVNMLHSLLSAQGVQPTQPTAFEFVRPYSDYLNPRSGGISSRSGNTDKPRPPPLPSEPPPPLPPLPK

Row | Structure (SMILES) | IC50 [1] | IC50 (CCNE1-normal SKOV3 cells) | IC50 [2] | IC50 (CDK6-CYCLIN D3; [3]) | CDK2 Fold selectivity against CDK6 (CDK6-CYCLIN D3; Table 36) | IC50 (CDK1-CYCLIN B; [3]) | CDK2 Fold selectivity against CDK1 (CDK1-CYCLIN B; Table 36) | IC50 (CDK4-CYCLIN D1; [3]) | CDK2 Fold selectivity against CDK4 (CDK4-CYCLIN D1; Table 36) | IC50 (CDK2-CYCLIN E1; [3]) | IC50 (CDK9-CYCLIN T1; [3]) | CDK2 Fold selectivity against CDK9 (CDK9-CYCLIN T1; Table 36) | also measured
1 | C[C@@H]1NC(=O)O[C@@H]2CC[C@@H](C2)c2cc([nH]n2)Nc2ccnc(c2)OCCC1(F)F [Compound 181, (1^1S,1^3R,9S,Z)-8,8-difluoro-9-methyl-2^1H-5,12-dioxa-3,10-diaza-4(4,2)-pyridina-2(3,5)-pyrazola-1(1,3)-cyclopentanacyclododecaphan-11-one] | 0.01 to 0.05 µM | 0.25 to 1.25 µM | 0.01 to 0.05 µM | – | – | – | – | – | – | – | – | – | IC50 (CDK6-CYCLIN D3; ADP-Glo, 1000 μM ATP, Table 29): > 0.5 µM; CDK2 Fold selectivity, CDK6 (CDK6-CYCLIN D3; CDK2 versus CDK6, Table 30): C (C, >50 and ≤100); IC50 (CDK1-CYCLIN B; ADP-Glo, 1000 μM ATP, Table 29): 0.1 to 0.5 µM; CDK2 Fold selectivity, CDK1 (CDK1-CYCLIN B; CDK2 versus CDK1, Table 30): D (D, >20 and ≤50); IC50 (CDK4-CYCLIN D1; ADP-Glo, 1000 μM ATP, Table 29): > 0.5 µM; CDK2 Fold selectivity, CDK4 (CDK4-CYCLIN D1; CDK2 versus CDK4, Table 30): C (C, >50 and ≤100); IC50 (CDK2-CYCLIN E1; ADP-Glo, 1000 μM ATP, Table 29): ≤ 0.01 µM; IC50 (CDK9-CYCLIN T1; ADP-Glo, 1000 μM ATP, Table 29): 0.1 to 0.5 µM; CDK2 Fold selectivity, CDK9 (CDK9-CYCLIN T1; CDK2 versus CDK9, Table 30): D (D, >20 and ≤50)
2 | C[C@H]1CCCOc2cc(ccn2)Nc2[nH]nc(c2F)[C@H]2CC[C@H](C2)OC(=O)N1 [Compound 183, (1^1S,1^3R,9S,E)-2^4-fluoro-9-methyl-2^1H-5,12-dioxa-3,10-diaza-4(4,2)-pyridina-2(3,5)-pyrazola-1(1,3)-cyclopentanacyclododecaphan-11-one] | 0.01 to 0.05 µM | > 1.25 µM | 0.05 to 0.25 µM | – | – | – | – | – | – | – | – | – | IC50 (CDK6-CYCLIN D3; ADP-Glo, 1000 μM ATP, Table 33): > 0.5 µM; CDK2 Fold selectivity against CDK6 (CDK6-CYCLIN D3; Table 34): C (C, >50 and ≤100); IC50 (CDK1-CYCLIN B; ADP-Glo, 1000 μM ATP, Table 33): > 0.5 µM; CDK2 Fold selectivity against CDK1 (CDK1-CYCLIN B; Table 34): D (D, >20 and ≤50); IC50 (CDK4-CYCLIN D1; ADP-Glo, 1000 μM ATP, Table 33): > 0.5 µM; CDK2 Fold selectivity against CDK4 (CDK4-CYCLIN D1; Table 34): C (C, >50 and ≤100); IC50 (CDK2-CYCLIN E1; ADP-Glo, 1000 μM ATP, Table 33): 0.01 to 0.05 µM; IC50 (CDK9-CYCLIN T1; ADP-Glo, 1000 μM ATP, Table 33): > 0.5 µM; CDK2 Fold selectivity against CDK9 (CDK9-CYCLIN T1; Table 34): B (B, >100 and ≤500)
3 | C[C@H]1CC(F)(F)COc2cc(ccn2)Nc2cc(n[nH]2)[C@H]2CC[C@H](C2)OC(=O)N1 [Compound 223, (1^1S,1^3R,9S,Z)-7,7-difluoro-9-methyl-2^1H-5,12-dioxa-3,10-diaza-4(4,2)-pyridina-2(3,5)-pyrazola-1(1,3)-cyclopentanacyclododecaphan-11-one] | 0.002 to 0.01 µM | 0.25 to 1.25 µM | 0.01 to 0.05 µM | 0.1 to 0.5 µM | C (C, >50 and ≤100) | 0.05 to 0.1 µM | E (E, <20) | 0.1 to 0.5 µM | C (C, >50 and ≤100) | ≤ 0.01 µM | 0.1 to 0.5 µM | C (C, >50 and ≤100) | –
4 | C[C@H]1CCCOc2cc(ccn2)Nc2cc(n[nH]2)[C@H]2C[C@@H](F)[C@H](C2)OC(=O)N1 [Compound 224, (1^1R,1^3S,1^4R,9S,Z)-1^4-fluoro-9-methyl-2^1H-5,12-dioxa-3,10-diaza-4(4,2)-pyridina-2(3,5)-pyrazola-1(1,3)-cyclopentanacyclododecaphan-11-one] | 0.002 to 0.01 µM | > 1.25 µM | 0.01 to 0.05 µM | 0.1 to 0.5 µM | C (C, >50 and ≤100) | 0.01 to 0.05 µM | E (E, <20) | 0.1 to 0.5 µM | C (C, >50 and ≤100) | ≤ 0.01 µM | > 0.5 µM | B (B, >100 and ≤500) | –
